What was measured:
MGLL = molecular target: T1, MGLL (Mus musculus, UniProt O35678); assay: In vitro competitive activity-based protein profiling, mouse brain proteome (MGLL); assay type: biochemical; design: IC50 MGLL Brain (Mouse, μM): scale not given here; conditions: for % Inh MGLL Brain (Mouse, μM): concentration not given (μM)
T1 construct: Brain; from tissue; host or cells: mouse brain proteome
T1 sequence (O35678 1-303): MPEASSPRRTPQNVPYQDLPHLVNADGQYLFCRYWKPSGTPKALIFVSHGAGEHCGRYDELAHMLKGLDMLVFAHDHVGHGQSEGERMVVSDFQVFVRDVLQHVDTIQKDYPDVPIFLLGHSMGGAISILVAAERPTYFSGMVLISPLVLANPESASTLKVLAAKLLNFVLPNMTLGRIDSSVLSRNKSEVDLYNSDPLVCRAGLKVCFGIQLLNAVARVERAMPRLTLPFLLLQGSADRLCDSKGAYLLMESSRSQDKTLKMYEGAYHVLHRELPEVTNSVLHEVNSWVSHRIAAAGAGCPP

ABHD6 = molecular target: T2, ABHD6 (Mus musculus, UniProt Q8R2Y0); assay: In vitro competitive activity-based protein profiling, mouse brain proteome (ABHD6); assay type: biochemical; conditions: mouse brain proteome; concentration not given (μM)
T2 construct: Brain; from tissue; host or cells: mouse brain proteome
T2 sequence (Q8R2Y0 1-336): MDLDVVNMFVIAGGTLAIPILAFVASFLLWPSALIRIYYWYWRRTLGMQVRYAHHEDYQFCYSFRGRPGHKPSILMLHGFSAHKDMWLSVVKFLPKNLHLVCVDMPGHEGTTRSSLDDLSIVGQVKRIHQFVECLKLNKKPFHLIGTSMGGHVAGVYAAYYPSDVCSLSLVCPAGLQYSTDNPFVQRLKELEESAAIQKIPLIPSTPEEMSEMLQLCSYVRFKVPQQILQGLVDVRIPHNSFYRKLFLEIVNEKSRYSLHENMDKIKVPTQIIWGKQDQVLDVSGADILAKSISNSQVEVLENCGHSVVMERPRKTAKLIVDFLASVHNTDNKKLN
Procedure: [The source words this procedure for another target and reports this target under the same test.] In Vitro Competitive Activity-Based Protein Profiling.
Proteomes (human prefrontal cortex or cell membrane fractions) (50 μL, 1.0 mg/mL total protein concentration) were preincubated with varying concentrations of inhibitors at 37° C. After 30 min, FP-Rh or HT-01 (1.0 μL, 50 μM in DMSO) was added and the mixture was incubated for another 30 min at room temperature. Reactions were quenched with SDS loading buffer (15 μL-4×) and run on SDS-PAGE.

| SMILES | % Inh MGLL Brain (Mouse, μM) (MGLL) | % Inh ABHD6 Brain (Mouse, μM) (ABHD6) | IC50 MGLL Brain (Mouse, μM) (MGLL) |
| --- | --- | --- | --- |
| CS(=O)(=O)N1CCC2(CCN(c3cc(Cl)ccc3CN3CCN(C(=O)OC(C(F)(F)F)C(F)(F)F)CC3)CC2)C1 [Example 174, 1,1,1,3,3,3-Hexafluoropropan-2-yl 4-(4-chloro-2-(2-(methylsulfonyl)-2,8-diazaspiro[4.5]decan-8-yl)benzyl)piperazine-1-carboxylate] | ### (### is ≥75%) | # (# is ≤25%) |  |
| O=C(OC(C(F)(F)F)C(F)(F)F)N1CCC2(CCN(Cc3ccc(C(F)(F)F)cc3N3CC4COCC4C3)CC2)C1 (centres unmarked) [Example 188, 1,1,1,3,3,3-Hexafluoropropan-2-yl 8-(2-(tetrahydro-1H-furo[3,4-c]pyrrol-5(3H)-yl)-4-(trifluoromethyl)benzyl)-2,8-diazaspiro[4.5]decane-2-carboxylate] | ### (### is ≥75%) | # (# is ≤25%) |  |
| CC(=O)N1CCCc2cccc(CN3CCC4(CC3)CN(C(=O)OC(C(F)(F)F)C(F)(F)F)C4)c21 [Example 152, 1,1,1,3,3,3-Hexafluoropropan-2-yl 7-((1-acetyl-1,2,3,4-tetrahydroquinolin-8-yl)methyl)-2,7-diazaspiro[3.5]nonane-2-carboxylate] | ### (### is ≥75%) | ### (### is ≥75%) |  |
| CS(=O)(=O)N1CCCC12CCN(c1cc(C(F)(F)F)ccc1CN1CCN(C(=O)OC(C(F)(F)F)C(F)(F)F)CC1)CC2 [Example 209, 1,1,1,3,3,3-Hexafluoropiopan-2-yl 4-(2-(1-(methylsulfonyl)-1.8-diazaspiro[4.5]decan-8-yl)-4-(trifluoromethyl)benzyl) piperazine-1-carboxylate] | ### (### is ≥75%) | # (# is ≤25%) |  |
| CN1CCC2(CCN(c3cc(C(F)(F)F)ccc3CN3CCN(C(=O)OC(C(F)(F)F)C(F)(F)F)CC3)CC2)C1 [Example 182, 1,1,1,3,3,3-Hexafluoropropan-2-yl 4-(2-(2-methyl-2,8-diazaspiro[4.5]decan-8-yl)-4-(trifluoromethyl)benzyl) piperazine-1-carboxylate] | ### (### is ≥75%) | # (# is ≤25%) |  |
| CCN1CC2(CCN(c3cc(C(F)(F)F)ccc3CN3CCN(C(=O)OC(C(F)(F)F)C(F)(F)F)CC3)C2)C1 [Example 184, 1,1,1,3,3,3-Hexafluoropropan-2-yl 4-(2-(2-ethyl-2,6-diazaspiro[3,4]octan-6-yl)-4-(trifluoromethyl)benzyl) piperazine-1-carboxylate] | ### (### is ≥75%) | # (# is ≤25%) |  |
| CS(=O)(=O)N1CCC2(CCN(c3cc(C(F)(F)F)ccc3CN3CCC4(CCN(C(=O)OC(C(F)(F)F)C(F)(F)F)C4)C3)CC2)C1 (centres unmarked) [Example 242, 1,1,1,3,3,3-Hexafluoropropan-2-yl 7-(2-(2-(methylsulfonyl)-2,8-diazaspiro[4.5]decan-8-yl)-4-(trifluoromethyl)benzyl)-2,7-diazaspiro[4.4]nonane-2-carboxylate] | ### (### is ≥75%) | ## (## is between 25 and 75%) |  |
| CC(=O)N1CCC2(CCN(c3cc(Cl)cc(CN4CCCC45CN(C(=O)OC(C(F)(F)F)C(F)(F)F)C5)c3)CC2)C1 [Example 234, 1,1,1,3,3,3-Hexafluoropropan-2-yl 5-(3-(2-acetyl-2,8-diazaspiro[4.5]decan-8-yl)-5-chlorobenzyl)-2,5-diazaspiro[3.4]octane-2-carboxylate] | # (# is ≤25%) | ### (### is ≥75%) |  |
| CS(=O)(=O)N1CC2CN(c3cc(C(F)(F)F)ccc3CN3CCN(C(=O)OC(C(F)(F)F)C(F)(F)F)CC3)CC2C1 (centres unmarked) [Example 201, 1,1,1,3,3,3-Hexafluoropropan-2-yl 4-(2-(5-(methylsulfonyl)hexahydropyrrolo[3,4-c]pyrrol-2(lH)-yl)-4-(tnfluoromethyl)benzyl)pipera zinc-1-carboxylate] | ### (### is ≥75%) | ## (## is between 25 and 75%) |  |
| CN(Cc1cc(N2CCCC2)cc(C(F)(F)F)c1)C1(C)CCN(C(=O)OC(C(F)(F)F)C(F)(F)F)CC1 [Example 76, 1,1,1,3,3,3-Hexafluoropropan-2-yl 4-methyl-4-(methyl(3-(pyrrolidin-1-yl)-5-(trifluoromethyl)bcnzyl)amino) piperidine-1-carboxylate] | ### (### is ≥75%) | # (# is ≤25%) |  |
| O=C(OC(C(F)(F)F)C(F)(F)F)N1CCC2(CCN(Cc3ccc(C(F)(F)F)cc3N3CCCCC3)CC2)C1 [Example 187, 1,1,1,3,3,3-Hexafluoropropan-2-yl 8-(2-(piperidin-1-yl)-4-(trifluoromethyl)benzyl)-2,8-diazaspiro[4.5]decane-2-carboxylate] | ### (### is ≥75%) | # (# is ≤25%) |  |

Further lines, results first:

| % Inh MGLL Brain (Mouse, μM) (MGLL) | % Inh ABHD6 Brain (Mouse, μM) (ABHD6) | IC50 MGLL Brain (Mouse, μM) (MGLL) | SMILES |
| --- | --- | --- | --- |
| ### (### is ≥75%) | ### (### is ≥75%) |  | O=C(OC(C(F)(F)F)C(F)(F)F)N1CC2(CCN(Cc3ccc(C(F)(F)F)cc3N3CCOCC3)CC2)C1 [Example 40, 1,1,1,3,3,3-Hexafluoropropan-2-yl 7-(2-morpholino-4-(triiluoromethyl)benzyl)-2,7-diazaspiro[3.5]nonane-2-carboxylate] |
| ### (### is ≥75%) | ### (### is ≥75%) | * * * | CC(=O)N1CCCc2cccc(CN3CC4(CCN(C(=O)OC(C(F)(F)F)C(F)(F)F)CC4)C3)c21 [Example 15, 1,1,1,3,3,3-Hexafluoropropan-2-yl 2-((1-acetyl-1,2,3,4-tetrahydroquinolin-8-yl)methyl)-2,7-diazaspiro[3.5]nonane-7-carboxylate] |
| ### (### is ≥75%) | ### (### is ≥75%) |  | O=C(OC(C(F)(F)F)C(F)(F)F)N1CCC2(CC1)CN(Cc1ccc(Cl)cc1N1CCOCC1)C2 [Example 39, 1,1,1,3,3,3-Hexafluoropropan-2-yl 2-(4-chloro-2-morpholinobenzyl)-2,7-diazaspiro[3.5]nonane-7-carboxylate] |
| ### (### is ≥75%) | # (# is ≤25%) |  | O=C(OC(C(F)(F)F)C(F)(F)F)N1CCC2(CCN(Cc3cccc(Cl)c3N3CCCC3)CC2)C1 [Example 171, 1,1,1,3,3,3-Hexafluoropropan-2-yl 8-(3-chloro-2-(pyrrolidin-1-yl)benzyl)-2,8-diazaspiro[4.5]decane-2-carboxylate] |
| ### (### is ≥75%) | ### (### is ≥75%) |  | Cc1cc(N2CCOCC2)ccc1CN1CC2(CCN(C(=O)OC(C(F)(F)F)C(F)(F)F)CC2)C1 [Example 82, 1,1,1,3,3,3-Hexafluoropropan-2-yl 2-(2-methyl-4-morpholinobenzyl)-2,7-diazaspiro[3.5]nonane-7-carboxylate] |
| ### (### is ≥75%) | ### (### is ≥75%) |  | O=C(OC(C(F)(F)F)C(F)(F)F)N1CCC2(CC1)CN(Cc1ccc(N3CCOCC3)cc1Cl)C2 [Example 79, 1,1,1,3,3,3-Hexafluoropropan-2-yl 2-(2-chloro-4-morpholinobenzyl)-2,7-diazaspiro[3.5]nonane-7-carboxylate] |
| ### (### is ≥75%) | ### (### is ≥75%) |  | O=C(OC(C(F)(F)F)C(F)(F)F)N1CCC2(CC1)CN(Cc1ccccc1C(F)(F)F)C2 [Example 95, 1,1,1,3,3,3-Hexafluoropropan-2-yl 2-(2-(trifluoromethyl)benzyl)-2,7-diazaspiro[3.5]nonane-7-carboxylate] |
| ### (### is ≥75%) | ### (### is ≥75%) |  | O=C(OC(C(F)(F)F)C(F)(F)F)N1CCC2(CC1)CN(Cc1c(N3CCC(F)CC3)cccc1C(F)(F)F)C2 [Example 51, 1,1,1,3,3,3-Hexafluoropropan-2-yl 2-(2-(4-fluoropiperidin-1-yl)-6-(trifluoromethyl)benzyl)-2,7-diazaspiro[3,5]nonane-7-carboxylate] |
| ### (### is ≥75%) | ### (### is ≥75%) |  | CCN1CCN(c2cccc(Cl)c2CN2CC3(CCN(C(=O)OC(C(F)(F)F)C(F)(F)F)CC3)C2)CC1 [Example 50, 1,1,1,3,3,3-Hexafluoropropan-2-yl 2-(2-chloro-6-(4-ethylpiperazin-1-yl)benzyl)-2,7-diazaspiro[3.5]nonane-7-carboxylate] |
| ### (### is ≥75%) | ### (### is ≥75%) | * * * | CCN1CCCc2cccc(CN3CC4(CCN(C(=O)OC(C(F)(F)F)C(F)(F)F)CC4)C3)c21 [Example 16, 1,1,1,3,3,3-Hexafluoropropan-2-yl 2-((1-ethyl-1,2,3,4-tetrahydroquinolin-8-yl)methyl)-2,7-diazaspiro[3.5]nonane-7-carboxylate] |

Source: US11161856B2 (H. Lundbeck A/S, priority 2017, dated 2021)
